Type in all cases: cell-based
The target of assay [1] is Free fatty acid receptor 1 (Homo sapiens) (UniProt O14842). Nature of the assay: Agonist activity at human GPR40 expressed in rat INS1(832/13) cells harboring human proinsulin assessed as increase in glucose-stimulated insulin secretion at 20 to 40 uM incubated for 5 mins by ELISA.
Assay [2] has the same target. Nature of the assay: Partial agonist activity at human GPR40 expressed in rat INS1(832/13) cells harboring human proinsulin assessed as potentiation of 10 uM AV1-induced increase in glucose-stimulated insulin secretion by ELISA. (In an ELISA, binding on a coated surface is turned into a signal by an enzyme label.)
The target is the same in assay [3]. Briefly: Agonist activity at human GPR40 expressed in rat INS1(832/13) cells harboring human proinsulin assessed as increase in glucose-stimulated insulin secretion at 40 uM incubated for 5 mins in presence of GPR40 antagonist DC260126 by ELISA.
For assay [4] the target is unchanged. Nature of the assay: Antagonist activity at human GPR40 expressed in rat INS1(832/13) cells harboring human proinsulin assessed as inhibition of 20 uM AV1-induced increase in glucose-stimulated insulin secretion at 40 uM by ELISA.
The target is the same in assay [5]. Briefly: Partial agonist activity at human GPR40 expressed in rat INS1(832/13) cells harboring human proinsulin assessed as potentiation of 2.5 uM AV1-induced increase in glucose-stimulated insulin secretion at 40 uM by ELISA.
The target is the same in assay [6]. Nature of the assay: Antagonist activity at human GPR40 expressed in rat INS1(832/13) cells harboring human proinsulin assessed as inhibition of 20 uM AV1-induced increase in glucose-stimulated insulin secretion at 21 uM by ELISA.
For assay [7] the target is unchanged. Nature of the assay: Partial agonist activity at human GPR40 expressed in rat INS1(832/13) cells harboring human proinsulin assessed as potentiation of 2.5 uM AV1-induced increase in glucose-stimulated insulin secretion at 21 uM by ELISA.
The target is the same in assay [8]. Nature of the assay: Agonist activity at human GPR40 expressed in rat INS1(832/13) cells harboring human proinsulin assessed as increase in glucose-stimulated insulin secretion at 10 uM incubated for 5 mins in presence of GPR40 antagonist DC260126 by ELISA.

Two molecules from ChEMBL document CHEMBL4340564, “Quercetin-3-oleoyl derivatives as new GPR40 agonists: Molecular docking studies and functional evaluation” (Bioorg Med Chem Lett, 2019) can be followed below.

Molecules are shown by their SMILES. Calls of active or inactive are those of the source. The rule behind the calls is not given here.

Chain of Free fatty acid receptor 1 (Homo sapiens) (O14842 whole entry): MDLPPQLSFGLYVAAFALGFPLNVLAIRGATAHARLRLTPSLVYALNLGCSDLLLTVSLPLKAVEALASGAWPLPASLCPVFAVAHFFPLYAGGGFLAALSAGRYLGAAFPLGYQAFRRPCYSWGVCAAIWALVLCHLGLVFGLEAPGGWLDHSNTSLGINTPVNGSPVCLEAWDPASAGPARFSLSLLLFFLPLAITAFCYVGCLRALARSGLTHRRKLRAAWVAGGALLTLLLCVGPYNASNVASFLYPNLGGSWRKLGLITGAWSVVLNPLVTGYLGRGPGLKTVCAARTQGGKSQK

Take `CCCCCCCC/C=C\CCCCCCCC(=O)Oc1c(-c2ccc(O)c(O)c2)oc2cc(O)cc(O)c2c1=O`: the outcome in assay [1], in assay [4], in assay [5], in assay [6] and in assay [7] was Active. Besides, the Activity result in assay [2] was “Dose-dependent effect”. The result in assay [3] was inactive.

With `CCCCCCCC/C=C\CCCCCCCC(=O)Oc1c(-c2ccc3c(c2)OC(c2ccccc2)(c2ccccc2)O3)oc2cc(O)cc(O)c2c1=O`, the outcome in assay [1] was Active. In assay [8], the result was inactive.
